# Results: PubChem BioAssay (NCI)
#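 How tested: cells in 96-well plates exposed to compound for 48 hours at five concentrations. TGI: total growth inhibition.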
# Legend:
# Assay in all cases: growth of human tumour cells (NCI), 48 h
# [1] = tested on: SF-295 CNS
# [2] = tested on: KM12 colon
# [3] = tested on: A549 NSCLC
# [4] = tested on: SW-620 colon
# [5] = tested on: 786-0 renal
# [6] = tested on: K-562 leukemia
# [7] = tested on: UACC-62 melanoma
# [8] = tested on: SF-268 CNS
# [9] = tested on: MCF7 breast
# [10] = tested on: HL-60(TB) leukemia
# [11] = tested on: SNB-75 CNS
# [12] = tested on: T-47D breast
# [13] = tested on: SK-MEL-5 melanoma
# [14] = tested on: U251 CNS
# [15] = tested on: SK-OV-3 ovarian
# [16] = tested on: SNB-19 CNS
# [17] = tested on: CAKI-1 renal
# [18] = tested on: RXF 393 renal
# [19] = tested on: SK-MEL-2 melanoma
# [20] = tested on: MALME-3M melanoma
# [21] = tested on: SR leukemia
# [22] = tested on: HCT-15 colon
# [23] = tested on: EKVX NSCLC
# [24] = tested on: COLO 205 colon
# [25] = tested on: UACC-257 melanoma
# [26] = tested on: BT-549 breast
# [27] = tested on: PC-3 prostate
# [28] = tested on: HOP-62 NSCLC
# [29] = tested on: MDA-N
# [30] = tested on: NCI-H460 lung
# [31] = tested on: OVCAR-3 ovarian
# [32] = tested on: SK-MEL-28 melanoma
# [33] = tested on: MDA-MB-435
# [34] = tested on: HS 578T breast
# [35] = tested on: M14 melanoma
# [36] = tested on: DU-145 prostate
# [37] = tested on: NCI-H23 lung
# [38] = tested on: CCRF-CEM leukemia
# [39] = tested on: OVCAR-8 ovarian
# [40] = tested on: HT29 colon
# [41] = tested on: UO-31 renal
# [42] = tested on: MDA-MB-231 breast
# [43] = tested on: TK-10 renal
# [44] = tested on: OVCAR-4 ovarian
# [45] = tested on: SN12C renal
# [46] = tested on: NCI-H226 lung
# [47] = tested on: ACHN renal
# [48] = tested on: LOX IMVI melanoma
# [49] = tested on: OVCAR-5 ovarian
# [50] = tested on: SF-539 CNS
# [51] = tested on: RPMI-8226 leukemia
# [52] = tested on: IGROV1 ovarian
# [53] = tested on: NCI/ADR-RES ovarian
# [54] = tested on: MOLT-4 leukemia
# [55] = tested on: HCT-116 colon
# [56] = tested on: A498 renal
# [57] = tested on: NCI-H522 lung
# [58] = tested on: HOP-92 NSCLC
smiles,measurement,setting,value
CCCCC/C=C\C=C1\C(=O)C=C[C@@H]1C/C=C\CCCC(=O)O,TGI,[1],11.5 µM
same,TGI,[2],11.9 µM
same,TGI,[3],18.7 µM
same,TGI,[4],9.09 µM
same,TGI,[5],9.73 µM
same,TGI,[6],60 µM
same,TGI,[7],12 µM
same,TGI,[8],13.6 µM
same,TGI,[9],12.9 µM
same,TGI,[10],17.9 µM
same,TGI,[11],17.7 µM
same,TGI,[12],24.5 µM
same,TGI,[13],11.2 µM
same,TGI,[14],8.39 µM
same,TGI,[15],14.4 µM
same,TGI,[16],12.1 µM
same,TGI,[17],14.9 µM
same,TGI,[18],6.93 µM
same,TGI,[19],9.85 µM
same,TGI,[20],25 µM
same,TGI,[21],5.53 µM
same,TGI,[22],14.9 µM
same,TGI,[23],5.61 µM
same,TGI,[24],9.36 µM
same,TGI,[25],14.7 µM
same,TGI,[26],5.13 µM
same,TGI,[27],5.13 µM
same,TGI,[28],8.62 µM
same,TGI,[29],7.14 µM
same,TGI,[30],16.5 µM
same,TGI,[31],9.82 µM
same,TGI,[32],13.9 µM
same,TGI,[33],9.16 µM
same,TGI,[34],13.4 µM
same,TGI,[35],15.1 µM
same,TGI,[36],15.5 µM
same,TGI,[37],15.5 µM
same,TGI,[38],3.28 µM
same,TGI,[39],3.73 µM
same,TGI,[40],12 µM
same,TGI,[41],13.4 µM
same,TGI,[42],18.7 µM
same,TGI,[43],18 µM
same,TGI,[44],6.28 µM
same,TGI,[45],8.06 µM
same,TGI,[46],14.8 µM
same,TGI,[47],9.48 µM
same,TGI,[48],8.19 µM
same,TGI,[49],9.72 µM
same,TGI,[50],12.8 µM
same,TGI,[51],3.15 µM
same,TGI,[52],8.93 µM
same,TGI,[53],2.66 µM
same,TGI,[54],60 µM
same,TGI,[55],2.74 µM
same,TGI,[56],21.4 µM
CC(C)(C)c1ccc(O)c(C[N+](C)(C)C)c1,TGI,[1],> 100 µM
same,TGI,[2],> 100 µM
same,TGI,[3],> 100 µM
same,TGI,[4],> 100 µM
same,TGI,[5],> 100 µM
same,TGI,[6],> 100 µM
same,TGI,[7],> 100 µM
same,TGI,[8],> 100 µM
same,TGI,[9],> 100 µM
same,TGI,[11],> 100 µM
same,TGI,[12],> 100 µM
same,TGI,[13],> 100 µM
same,TGI,[14],> 100 µM
same,TGI,[15],> 100 µM
same,TGI,[57],> 100 µM
same,TGI,[16],> 100 µM
same,TGI,[17],> 100 µM
same,TGI,[18],> 100 µM
same,TGI,[19],> 100 µM
same,TGI,[20],> 100 µM
same,TGI,[21],> 100 µM
same,TGI,[22],> 100 µM
same,TGI,[23],> 100 µM
same,TGI,[24],> 100 µM
same,TGI,[26],> 100 µM
same,TGI,[27],> 100 µM
same,TGI,[28],> 100 µM
same,TGI,[29],> 100 µM
same,TGI,[30],> 100 µM
same,TGI,[31],> 100 µM
same,TGI,[32],> 100 µM
same,TGI,[33],> 100 µM
same,TGI,[34],> 100 µM
same,TGI,[35],> 100 µM
same,TGI,[36],> 100 µM
same,TGI,[37],> 100 µM
same,TGI,[38],> 100 µM
same,TGI,[39],> 100 µM
same,TGI,[40],> 100 µM
same,TGI,[41],> 100 µM
same,TGI,[42],> 100 µM
same,TGI,[43],> 100 µM
same,TGI,[44],> 100 µM
same,TGI,[45],> 100 µM
same,TGI,[47],> 100 µM
same,TGI,[48],> 100 µM
same,TGI,[49],> 100 µM
same,TGI,[50],> 100 µM
same,TGI,[51],> 100 µM
same,TGI,[52],> 100 µM
same,TGI,[53],> 100 µM
same,TGI,[54],> 100 µM
same,TGI,[55],> 100 µM
same,TGI,[58],> 100 µM
same,TGI,[56],> 100 µM
